# Results from patent US12679878B2, “CRF2 receptor agonists and their use in therapy” (SANOFI, priority 2020, dated 2026).
# Starred links: 1 amine or outer side, 2 acyl side, 3 side chain; linkers in the order of their positions; H or OH if unused. Non-standard residues stand in square brackets, D forms with d. Residues, ends and D or L forms follow the SMILES beside them. Groups on a side chain read outwards from the residue. *: point of attachment. C18 diacid = O=C(O)CCCCCCCCCCCCCCCCC(=O)*; γGlu = O=C(O)[C@H](CCC(=O)[*:2])N[*:1]; Palmitoyl = CCCCCCCCCCCCCCCC(=O)*; AEEA = NCCOCCOCC(=O)O; Aib = CC(C)(N)C(=O)O
# Key:
# Assay type in all cases: cell-based
# [1] = molecular target: T1, CRF1R receptor (Homo sapiens, UniProt P34998); assay: cAMP activity at anti-target CRF1R, CRF1R-overexpression CHO cell line (Example 9); conditions: CRF1R-overexpression CHO cell line; for Emax: read-out: Emax (%)
# T1 construct: host or cells: CHO-K1 clone 2
# T1 sequence (P34998 24-415): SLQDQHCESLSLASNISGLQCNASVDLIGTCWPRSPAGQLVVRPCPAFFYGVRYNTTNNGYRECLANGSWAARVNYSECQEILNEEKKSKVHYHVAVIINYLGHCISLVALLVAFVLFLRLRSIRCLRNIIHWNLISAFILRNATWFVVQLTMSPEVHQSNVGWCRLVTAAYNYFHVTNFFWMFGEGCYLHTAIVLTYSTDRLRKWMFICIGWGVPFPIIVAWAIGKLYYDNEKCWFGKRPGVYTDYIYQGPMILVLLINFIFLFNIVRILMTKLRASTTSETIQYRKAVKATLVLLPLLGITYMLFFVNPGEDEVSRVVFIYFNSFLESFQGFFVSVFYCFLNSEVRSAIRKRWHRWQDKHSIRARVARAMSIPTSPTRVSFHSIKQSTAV
# Procedure, shortened: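 cAMP accumulation was read by HTRF after 30 min at room temperature of compound treatment. Cells were cryopreserved CHO cells overexpressing CRF1R, plated at 2000/well in IBMX (2 mM)-containing HBSS/HEPES buffer with 0 or 0.1% HSA. Activity was normalized to 1000 nM UCN2 as 100%.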
# [2] = system: rat CRF2R α receptor; assay: cAMP agonism at rat CRF2R α receptor in A7R5 rat aortic smooth muscle cells (Example 8); conditions: cAMP HTRF, A7R5 rat aortic smooth muscle cell line, 0% HSA
# Procedure, shortened: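 Thawed cryopreserved A7R5 cells in HBSS/20 mM HEPES (0 or 0.1% HSA) with 2 mM IBMX, 2000 cells/well, were exposed to compound for 30 min at room temperature. cAMP was read by HTRF (665/620 nm ratio) after 1 h with lysis reagents. Activity was normalised to 1000 nM urocortin 2 as 100%, and EC50 was taken as the concentration giving 50% of maximal activation.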
# [3] = molecular target: T2, human CRF2α receptor (Homo sapiens, UniProt Q13324); assay: cAMP agonism at human CRF2 α receptor in TeloHEAC cells (Example 7); conditions: cAMP HTRF, TeloHEAC cells stably expressing human CRF2 α, 0% HSA; read-out: EC50 [nM], 0% HSA
# T2 construct: expressed in transfected cells; host or cells: TeloHEAC
# T2 sequence (Q13324 1-411): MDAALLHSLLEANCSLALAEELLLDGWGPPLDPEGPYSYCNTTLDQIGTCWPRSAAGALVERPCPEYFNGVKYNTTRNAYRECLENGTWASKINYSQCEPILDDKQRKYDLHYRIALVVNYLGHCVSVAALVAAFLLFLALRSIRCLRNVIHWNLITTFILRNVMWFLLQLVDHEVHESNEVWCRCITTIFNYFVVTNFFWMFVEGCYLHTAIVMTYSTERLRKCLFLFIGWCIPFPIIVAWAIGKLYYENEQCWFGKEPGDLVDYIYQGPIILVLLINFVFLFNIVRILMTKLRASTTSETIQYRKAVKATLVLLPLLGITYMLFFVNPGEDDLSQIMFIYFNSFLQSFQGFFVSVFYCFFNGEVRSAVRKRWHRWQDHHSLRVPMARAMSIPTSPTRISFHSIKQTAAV
# Procedure, shortened: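 HTRF ratio 665/620 nm, read 1 h after lysis reagents, reports cAMP. Cells: thawed stocks, 2000/well, 30 min RT with compound in HBSS, 20 mM HEPES, 0 or 0.1% HSA, 2 mM IBMX. Activity normalised to UCN2 1000 nM = 100%; EC50 from half-maximal activation.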
EC50 ([1]; 0% HSA),Emax [1],EC50 [2],EC50 [3],SMILES
> 1000 nM,16%,0.11 nM,0.2 nM,CCCCCCCCCCCCCCCC(=O)N[C@@H](CCC(=O)NCCCC[C@H](NC(=O)[C@@H](NC(=O)[C@H](CCCCN)NC(=O)[C@@H](NC(=O)[C@@H]1CCCN1C(=O)[C@@H](NC(=O)[C@H](CC(=O)O)NC(=O)[C@H](CC(C)C)NC(=O)[C@H](CO)NC(=O)[C@H](CC(C)C)NC(=O)[C@@H](NC(=O)[C@@H](N)Cc1ccccc1)[C@@H](C)O)C(C)C)[C@@H](C)O)[C@@H](C)CC)C(=O)N[C@@H](CCC(N)=O)C(=O)N[C@@H](CCCCN)C(=O)N[C@@H](CC(C)C)C(=O)N[C@@H](CC(C)C)C(=O)N[C@@H](CCCCN)C(=O)N[C@@H](CCC(N)=O)C(=O)N[C@@H](CCC(=O)O)C(=O)N[C@@H](CCCCN)C(=O)N[C@@H](CCC(N)=O)C(=O)N[C@@H](CCCCN)C(=O)N[C@@H](CCCCN)C(=O)N[C@@H](CCC(N)=O)C(=O)N[C@@H](CCCNC(=N)N)C(=O)N[C@@H](CCC(N)=O)C(=O)N[C@@H](CCCCN)C(=O)N[C@@H](C)C(=O)N[C@@H](CCCCN)C(=O)N[C@H](C(=O)N[C@@H](C)C(=O)N[C@@H](C)C(=O)N[C@@H](CCC(N)=O)C(=O)N[C@H](C(=O)N[C@@H](CC(C)C)C(=O)N[C@@H](C)C(=O)N[C@@H](CCC(N)=O)C(=O)N[C@H](C(N)=O)C(C)C)[C@@H](C)CC)[C@@H](C)O)C(=O)O [compound 8] (H-FTLSLDVPTKIK([γGlu-Palmitoyl])QKLLKQEKQKKQRQKAKTAAQILAQV-NH2; N-terminus assumed)
,25.8%,12.6 nM,,CC[C@H](C)[C@H](NC(C)=O)C(=O)N[C@H](C(=O)N[C@@H](CC(C)C)C(=O)N[C@@H](CO)C(=O)N[C@@H](CC(C)C)C(=O)N[C@@H](CC(=O)O)C(=O)N[C@@H](C(=O)N1CCC[C@H]1C(=O)N[C@H](C(=O)NCC(=O)N[C@@H](CC(C)C)C(=O)N[C@@H](CCCCNC(=O)COCCOCCNC(=O)COCCOCCNC(=O)CC[C@H](NC(=O)CCCCCCCCCCCCCCCCC(=O)O)C(=O)O)C(=O)N[C@@H](CCC(N)=O)C(=O)N[C@H](C(=O)N[C@@H](CC(C)C)C(=O)N[C@@H](CC(C)C)C(=O)N[C@@H](CCC(=O)O)C(=O)N[C@@H](CCC(N)=O)C(=O)N[C@@H](CCC(=O)O)C(=O)N[C@@H](CCCNC(=N)N)C(=O)N[C@@H](CCC(N)=O)C(=O)N[C@@H](CCCCN)C(=O)NC(C)(C)C(=O)N[C@@H](CCC(N)=O)C(=O)N[C@@H](CCCNC(=N)N)C(=O)N[C@@H](CCC(=O)O)C(=O)N[C@@H](CCC(N)=O)C(=O)N[C@@H](C)C(=O)N[C@@H](CCC(=O)O)C(=O)N[C@@H](CCCCN)C(=O)N[C@@H](CC(N)=O)C(=O)N[C@@H](CCCCN)C(=O)N[C@@H](CCC(N)=O)C(=O)N[C@H](C(=O)N[C@@H](CC(C)C)C(=O)N[C@@H](CCC(=O)O)C(=O)N[C@@H](CCC(N)=O)C(=O)N[C@H](C(N)=O)C(C)C)[C@@H](C)CC)[C@@H](C)CC)[C@@H](C)CC)C(C)C)C(C)C [compound 164] (Ac-IVLSLD[dV]PIGLK([AEEA-AEEA-γGlu-C18 diacid])QILLEQERQK[Aib]QREQAEKNKQILEQV-NH2)
,26.9%,2.41 nM,,CC[C@H](C)[C@H](NC(C)=O)C(=O)N[C@H](C(=O)N[C@@H](CC(C)C)C(=O)N[C@@H](CO)C(=O)N[C@@H](CC(C)C)C(=O)N[C@@H](CC(=O)O)C(=O)N[C@@H](C(=O)N1CCC[C@H]1C(=O)N[C@H](C(=O)N[C@@H](CCCCN)C(=O)N[C@@H](CC(C)C)C(=O)N[C@@H](CCCCNC(=O)COCCOCCNC(=O)COCCOCCNC(=O)CC[C@H](NC(=O)CCCCCCCCCCCCCCCCC(=O)O)C(=O)O)C(=O)N[C@@H](CCC(N)=O)C(=O)N[C@H](C(=O)N[C@@H](CC(C)C)C(=O)N[C@@H](CC(C)C)C(=O)N[C@@H](CCC(=O)O)C(=O)N[C@@H](CCC(N)=O)C(=O)N[C@@H](C)C(=O)N[C@@H](CCCNC(=N)N)C(=O)N[C@@H](CCC(N)=O)C(=O)N[C@@H](CCCCN)C(=O)NC(C)(C)C(=O)N[C@@H](CCC(N)=O)C(=O)N[C@@H](CCCNC(=N)N)C(=O)N[C@@H](CCC(=O)O)C(=O)N[C@@H](CCC(N)=O)C(=O)N[C@@H](C)C(=O)N[C@@H](CCC(=O)O)C(=O)N[C@@H](CCCCN)C(=O)N[C@@H](CC(N)=O)C(=O)N[C@@H](CCC(=O)O)C(=O)N[C@@H](CCC(N)=O)C(=O)N[C@H](C(=O)N[C@@H](CC(C)C)C(=O)N[C@@H](CCC(=O)O)C(=O)N[C@@H](CCC(N)=O)C(=O)N[C@H](C(N)=O)C(C)C)[C@@H](C)CC)[C@@H](C)CC)[C@@H](C)CC)C(C)C)C(C)C [compound 165] (Ac-IVLSLD[dV]PIKLK([AEEA-AEEA-γGlu-C18 diacid])QILLEQARQK[Aib]QREQAEKNEQILEQV-NH2)
,5.94%,9.99 nM,,CC[C@H](C)[C@H](NC(C)=O)C(=O)N[C@H](C(=O)N[C@@H](CC(C)C)C(=O)N[C@@H](CO)C(=O)N[C@@H](CC(C)C)C(=O)N[C@@H](CC(=O)O)C(=O)N[C@@H](C(=O)N1CCC[C@H]1C(=O)N[C@H](C(=O)N[C@@H](CCCCN)C(=O)N[C@@H](CC(C)C)C(=O)N[C@@H](CCCCNC(=O)COCCOCCNC(=O)COCCOCCNC(=O)CC[C@H](NC(=O)CCCCCCCCCCCCCCCCC(=O)O)C(=O)O)C(=O)N[C@@H](CCC(N)=O)C(=O)N[C@H](C(=O)N[C@@H](CC(C)C)C(=O)N[C@@H](CC(C)C)C(=O)N[C@@H](CCC(=O)O)C(=O)N[C@@H](CCC(N)=O)C(=O)N[C@@H](CCC(=O)O)C(=O)N[C@@H](CCCNC(=N)N)C(=O)N[C@@H](CCC(N)=O)C(=O)N[C@@H](CCCCN)C(=O)NC(C)(C)C(=O)N[C@@H](CCC(N)=O)C(=O)N[C@@H](CCCNC(=N)N)C(=O)N[C@@H](CCC(=O)O)C(=O)N[C@@H](CCC(N)=O)C(=O)N[C@@H](C)C(=O)N[C@@H](CCC(=O)O)C(=O)N[C@@H](CCCCN)C(=O)N[C@@H](CC(N)=O)C(=O)N[C@@H](CCC(=O)O)C(=O)N[C@@H](CCC(N)=O)C(=O)N[C@H](C(=O)N[C@@H](CC(C)C)C(=O)N[C@@H](CCC(=O)O)C(=O)N[C@@H](CCC(N)=O)C(=O)N[C@H](C(N)=O)C(C)C)[C@@H](C)CC)[C@@H](C)CC)[C@@H](C)CC)C(C)C)C(C)C [compound 166] (Ac-IVLSLD[dV]PIKLK([AEEA-AEEA-γGlu-C18 diacid])QILLEQERQK[Aib]QREQAEKNEQILEQV-NH2)
,-0.46%,76.9 nM,,CC[C@H](C)[C@H](NC(C)=O)C(=O)N[C@H](C(=O)N[C@@H](CC(C)C)C(=O)N[C@@H](CO)C(=O)N[C@@H](CC(C)C)C(=O)N[C@@H](CC(=O)O)C(=O)N[C@@H](C(=O)N1CCC[C@H]1C(=O)N[C@H](C(=O)NCC(=O)N[C@@H](CC(C)C)C(=O)N[C@@H](CCCCNC(=O)COCCOCCNC(=O)COCCOCCNC(=O)CC[C@H](NC(=O)CCCCCCCCCCCCCCCCC(=O)O)C(=O)O)C(=O)N[C@@H](CCC(N)=O)C(=O)N[C@H](C(=O)N[C@@H](CC(C)C)C(=O)N[C@@H](CC(C)C)C(=O)N[C@@H](CCC(=O)O)C(=O)N[C@@H](CCC(N)=O)C(=O)N[C@@H](CCC(=O)O)C(=O)N[C@@H](CCCNC(=N)N)C(=O)N[C@@H](CCC(N)=O)C(=O)N[C@@H](CCCCN)C(=O)NC(C)(C)C(=O)N[C@@H](CCC(N)=O)C(=O)N[C@@H](CCCNC(=N)N)C(=O)N[C@@H](CCC(=O)O)C(=O)N[C@@H](CCC(N)=O)C(=O)N[C@@H](C)C(=O)N[C@@H](CCC(=O)O)C(=O)N[C@@H](CCCCN)C(=O)N[C@@H](CC(N)=O)C(=O)N[C@@H](CCC(=O)O)C(=O)N[C@@H](CCC(N)=O)C(=O)N[C@H](C(=O)N[C@@H](CC(C)C)C(=O)N[C@@H](CCC(=O)O)C(=O)N[C@@H](CCC(N)=O)C(=O)N[C@H](C(N)=O)C(C)C)[C@@H](C)CC)[C@@H](C)CC)[C@@H](C)CC)C(C)C)C(C)C [compound 167] (Ac-IVLSLD[dV]PIGLK([AEEA-AEEA-γGlu-C18 diacid])QILLEQERQK[Aib]QREQAEKNEQILEQV-NH2)
